Where a name gives a salt, the structure may show the parent alone.
Test system: mouse
Test: toxicity on intraperitoneal dosage in the mouse
Type: in vivo
Procedure: In using the compounds of this invention to inhibit prolactin secretion or to treat Parkinson's syndrome or for other pharmacologic action, a pharmaceutically active compound according to Formula I above, or a salt thereof with a pharmaceutically-acceptable acid, is administered to a subject suffering from Parkinsonism or in need of having their prolactin level reduced in an amount effective to alleviate some of the symptoms of Parkinsonism or to reduce an elevated prolactin level. Oral administration is preferred. If parenteral administration is used, the injection is preferably by the subcutaneous route using an appropriate pharmaceutical formulation. […] In particular, with intravenous or intramuscular administration, a water soluble pharmaceutically-acceptable salt is employed. For oral administration, a pharmaceutically active compound according to Formula I either as the free base or in the form of a salt thereof can also be mixed with standard pharmaceutical excipients and loaded into empty telescoping gelatin capsules or pressed into tablets. The oral dosage range is from about 0.01 to 10 mg/kg of mammalian weight and the parenteral dose range from about 0.0025 to 2.5 mg/kg of mammalian weight.

CCCN(CCC)C1CCc2c[nH]cc2C1 (racemic) [dl-5-di-n-propylamino-4,5,6,7-tetrahydro-2H-benzo[c]pyrrole maleate]
deaths (10-30 mg/kg): no deaths
deaths (fatal dosages) (100-300 mg/kg): fatal

— US4264622A, “Tetrahydro-2H-benzo[c]pyrroles to inhibit prolactin secretion” (Eli Lilly and Company, priority 1980, dated 1981)
